{"source": "patent US12617758B2", "about": "“Quinazoline derivative having FLT3 inhibitory activity, and use thereof” (INDUSTRY-UNIVERSITY COOPERATION FOUNDATION HANYANG …, priority 2020, dated 2026)", "type_in_all_cases": "biochemical", "key": {"GSK3b": {"molecular_target": "GSK3b (Homo sapiens, UniProt P49841)", "sequence (P49841 whole entry, species assumed)": "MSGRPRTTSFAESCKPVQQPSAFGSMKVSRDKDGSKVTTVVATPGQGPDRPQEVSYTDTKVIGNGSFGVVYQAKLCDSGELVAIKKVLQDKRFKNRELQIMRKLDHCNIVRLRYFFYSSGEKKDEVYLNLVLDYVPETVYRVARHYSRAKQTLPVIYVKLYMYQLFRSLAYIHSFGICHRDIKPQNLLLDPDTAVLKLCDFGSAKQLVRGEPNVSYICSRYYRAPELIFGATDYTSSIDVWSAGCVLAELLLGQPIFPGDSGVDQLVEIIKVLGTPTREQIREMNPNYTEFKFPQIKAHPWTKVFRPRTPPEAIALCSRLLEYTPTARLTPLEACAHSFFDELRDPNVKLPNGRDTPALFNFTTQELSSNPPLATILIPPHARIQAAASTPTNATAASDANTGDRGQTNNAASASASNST", "assay": "Kinase panel screening", "conditions": "single dose of 10 μM, read-out: % inhibition rate"}, "c-MET": {"molecular_target": "c-MET (Homo sapiens, UniProt P08581)", "assay": "Kinase panel screening", "conditions": "single dose of 10 μM, read-out: % inhibition rate"}, "FLT (ITD)": {"molecular_target": "T1, FLT (ITD) (Homo sapiens, UniProt P36888)", "T1 sequence (P36888 1-993)": "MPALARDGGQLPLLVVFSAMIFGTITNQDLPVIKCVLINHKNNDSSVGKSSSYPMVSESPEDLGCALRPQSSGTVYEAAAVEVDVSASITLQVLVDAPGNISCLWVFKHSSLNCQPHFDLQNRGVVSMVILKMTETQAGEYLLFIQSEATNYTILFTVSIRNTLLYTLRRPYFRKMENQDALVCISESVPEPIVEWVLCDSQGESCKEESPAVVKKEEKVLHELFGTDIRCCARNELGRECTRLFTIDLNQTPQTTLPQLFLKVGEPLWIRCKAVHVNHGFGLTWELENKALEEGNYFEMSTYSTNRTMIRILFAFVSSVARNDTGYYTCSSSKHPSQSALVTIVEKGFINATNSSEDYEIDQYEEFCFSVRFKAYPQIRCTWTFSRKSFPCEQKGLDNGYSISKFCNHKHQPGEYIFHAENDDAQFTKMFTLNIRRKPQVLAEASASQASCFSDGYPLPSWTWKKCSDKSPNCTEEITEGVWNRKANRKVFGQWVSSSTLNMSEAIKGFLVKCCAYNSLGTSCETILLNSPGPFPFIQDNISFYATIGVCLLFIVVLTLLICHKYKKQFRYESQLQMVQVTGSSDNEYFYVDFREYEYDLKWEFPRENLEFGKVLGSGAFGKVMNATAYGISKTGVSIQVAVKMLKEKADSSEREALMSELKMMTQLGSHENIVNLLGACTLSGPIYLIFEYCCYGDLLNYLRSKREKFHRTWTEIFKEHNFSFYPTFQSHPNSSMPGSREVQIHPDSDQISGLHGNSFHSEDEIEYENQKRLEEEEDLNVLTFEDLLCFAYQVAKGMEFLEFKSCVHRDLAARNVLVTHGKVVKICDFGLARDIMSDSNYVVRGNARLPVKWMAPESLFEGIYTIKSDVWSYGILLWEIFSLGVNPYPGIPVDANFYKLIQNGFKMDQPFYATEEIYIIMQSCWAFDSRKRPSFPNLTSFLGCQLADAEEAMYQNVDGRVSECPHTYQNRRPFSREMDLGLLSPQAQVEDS", "assay": "FLT (ITD) enzyme activity (IC50)", "source_text": "(§1) Experimental Example 1. Measurement of FLT3 and FLT Enzyme Activity\n(§2) Changes in FLT3 and FLT enzyme activities by treatment with the quinazoline derivatives of the following Table 1 according to the present invention were confirmed by IC50."}, "SYK": {"molecular_target": "SYK (Homo sapiens, UniProt P43405)", "assay": "Kinase panel screening", "conditions": "single dose of 10 μM, read-out: % inhibition rate"}, "FYN": {"molecular_target": "FYN (Homo sapiens, UniProt P06241)", "sequence (P06241 whole entry, species assumed)": "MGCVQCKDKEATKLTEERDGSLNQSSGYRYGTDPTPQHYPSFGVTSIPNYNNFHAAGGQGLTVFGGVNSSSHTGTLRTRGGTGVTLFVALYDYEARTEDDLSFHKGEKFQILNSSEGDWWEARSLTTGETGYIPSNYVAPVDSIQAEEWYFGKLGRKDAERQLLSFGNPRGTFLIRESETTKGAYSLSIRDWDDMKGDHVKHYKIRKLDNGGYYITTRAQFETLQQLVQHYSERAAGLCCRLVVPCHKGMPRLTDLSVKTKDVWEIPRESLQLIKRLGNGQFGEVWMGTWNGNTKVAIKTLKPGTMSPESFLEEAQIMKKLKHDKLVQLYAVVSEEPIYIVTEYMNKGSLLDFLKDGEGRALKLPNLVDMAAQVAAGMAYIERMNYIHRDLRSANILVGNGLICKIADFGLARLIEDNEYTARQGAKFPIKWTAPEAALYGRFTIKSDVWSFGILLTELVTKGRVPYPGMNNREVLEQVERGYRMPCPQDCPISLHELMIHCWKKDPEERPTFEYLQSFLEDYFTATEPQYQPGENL", "assay": "Kinase panel screening", "conditions": "single dose of 10 μM, read-out: % inhibition rate"}, "AXL (R499C)": {"molecular_target": "AXL (R499C) (Homo sapiens, UniProt P30530, R499C)", "assay": "Kinase panel screening", "conditions": "single dose of 10 μM, read-out: % inhibition rate"}, "MEK1": {"molecular_target": "MEK1 (Homo sapiens, UniProt Q02750)", "sequence (Q02750 whole entry, species assumed)": "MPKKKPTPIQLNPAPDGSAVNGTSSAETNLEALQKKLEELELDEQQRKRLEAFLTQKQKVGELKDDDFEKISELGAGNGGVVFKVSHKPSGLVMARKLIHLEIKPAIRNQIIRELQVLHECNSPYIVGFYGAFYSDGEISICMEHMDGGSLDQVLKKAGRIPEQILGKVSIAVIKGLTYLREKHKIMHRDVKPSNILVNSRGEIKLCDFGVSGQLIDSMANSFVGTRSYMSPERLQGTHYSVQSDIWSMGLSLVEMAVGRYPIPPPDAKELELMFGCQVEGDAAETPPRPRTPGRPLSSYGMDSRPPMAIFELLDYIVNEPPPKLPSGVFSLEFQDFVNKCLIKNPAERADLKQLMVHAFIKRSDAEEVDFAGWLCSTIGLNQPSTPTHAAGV", "assay": "Kinase panel screening", "conditions": "single dose of 10 μM, read-out: % inhibition rate"}, "RON/MST1R": {"molecular_target": "RON/MST1R (Homo sapiens, UniProt Q04912)", "assay": "Kinase panel screening", "conditions": "single dose of 10 μM, read-out: % inhibition rate"}, "FLT3": {"molecular_target": "T2, FLT3 (Homo sapiens, UniProt P36888)", "T2 sequence (P36888 27-993)": "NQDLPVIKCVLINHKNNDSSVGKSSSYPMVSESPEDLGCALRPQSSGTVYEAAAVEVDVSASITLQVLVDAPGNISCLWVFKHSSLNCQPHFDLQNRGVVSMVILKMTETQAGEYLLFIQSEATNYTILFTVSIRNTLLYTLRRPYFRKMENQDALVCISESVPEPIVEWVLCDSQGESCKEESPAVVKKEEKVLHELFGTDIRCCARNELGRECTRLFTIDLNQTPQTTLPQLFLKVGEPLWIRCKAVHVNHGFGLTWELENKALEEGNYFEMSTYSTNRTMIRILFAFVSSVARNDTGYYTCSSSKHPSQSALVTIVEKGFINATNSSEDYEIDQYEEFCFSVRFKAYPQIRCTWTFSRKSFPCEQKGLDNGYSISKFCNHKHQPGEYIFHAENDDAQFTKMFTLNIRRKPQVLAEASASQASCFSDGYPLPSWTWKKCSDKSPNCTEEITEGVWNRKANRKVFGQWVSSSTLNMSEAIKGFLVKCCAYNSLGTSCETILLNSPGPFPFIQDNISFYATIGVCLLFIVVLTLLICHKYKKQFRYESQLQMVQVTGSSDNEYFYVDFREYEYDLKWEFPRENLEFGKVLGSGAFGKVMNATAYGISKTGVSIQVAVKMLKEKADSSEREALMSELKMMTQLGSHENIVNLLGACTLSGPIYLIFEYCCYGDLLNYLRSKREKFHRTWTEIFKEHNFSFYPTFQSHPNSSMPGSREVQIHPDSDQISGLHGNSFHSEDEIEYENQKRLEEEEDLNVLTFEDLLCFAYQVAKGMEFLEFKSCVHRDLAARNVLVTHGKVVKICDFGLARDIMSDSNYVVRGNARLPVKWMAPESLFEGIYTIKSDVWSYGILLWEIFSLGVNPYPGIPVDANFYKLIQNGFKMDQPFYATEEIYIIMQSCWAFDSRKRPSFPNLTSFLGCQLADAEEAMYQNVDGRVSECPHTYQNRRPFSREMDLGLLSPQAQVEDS", "assay": "FLT3 enzyme activity (IC50)", "source_text": "as §1, §2"}, "KDR/VEGFR2": {"molecular_target": "KDR/VEGFR2 (Homo sapiens, UniProt P35968)", "sequence (P35968 20-1356)": "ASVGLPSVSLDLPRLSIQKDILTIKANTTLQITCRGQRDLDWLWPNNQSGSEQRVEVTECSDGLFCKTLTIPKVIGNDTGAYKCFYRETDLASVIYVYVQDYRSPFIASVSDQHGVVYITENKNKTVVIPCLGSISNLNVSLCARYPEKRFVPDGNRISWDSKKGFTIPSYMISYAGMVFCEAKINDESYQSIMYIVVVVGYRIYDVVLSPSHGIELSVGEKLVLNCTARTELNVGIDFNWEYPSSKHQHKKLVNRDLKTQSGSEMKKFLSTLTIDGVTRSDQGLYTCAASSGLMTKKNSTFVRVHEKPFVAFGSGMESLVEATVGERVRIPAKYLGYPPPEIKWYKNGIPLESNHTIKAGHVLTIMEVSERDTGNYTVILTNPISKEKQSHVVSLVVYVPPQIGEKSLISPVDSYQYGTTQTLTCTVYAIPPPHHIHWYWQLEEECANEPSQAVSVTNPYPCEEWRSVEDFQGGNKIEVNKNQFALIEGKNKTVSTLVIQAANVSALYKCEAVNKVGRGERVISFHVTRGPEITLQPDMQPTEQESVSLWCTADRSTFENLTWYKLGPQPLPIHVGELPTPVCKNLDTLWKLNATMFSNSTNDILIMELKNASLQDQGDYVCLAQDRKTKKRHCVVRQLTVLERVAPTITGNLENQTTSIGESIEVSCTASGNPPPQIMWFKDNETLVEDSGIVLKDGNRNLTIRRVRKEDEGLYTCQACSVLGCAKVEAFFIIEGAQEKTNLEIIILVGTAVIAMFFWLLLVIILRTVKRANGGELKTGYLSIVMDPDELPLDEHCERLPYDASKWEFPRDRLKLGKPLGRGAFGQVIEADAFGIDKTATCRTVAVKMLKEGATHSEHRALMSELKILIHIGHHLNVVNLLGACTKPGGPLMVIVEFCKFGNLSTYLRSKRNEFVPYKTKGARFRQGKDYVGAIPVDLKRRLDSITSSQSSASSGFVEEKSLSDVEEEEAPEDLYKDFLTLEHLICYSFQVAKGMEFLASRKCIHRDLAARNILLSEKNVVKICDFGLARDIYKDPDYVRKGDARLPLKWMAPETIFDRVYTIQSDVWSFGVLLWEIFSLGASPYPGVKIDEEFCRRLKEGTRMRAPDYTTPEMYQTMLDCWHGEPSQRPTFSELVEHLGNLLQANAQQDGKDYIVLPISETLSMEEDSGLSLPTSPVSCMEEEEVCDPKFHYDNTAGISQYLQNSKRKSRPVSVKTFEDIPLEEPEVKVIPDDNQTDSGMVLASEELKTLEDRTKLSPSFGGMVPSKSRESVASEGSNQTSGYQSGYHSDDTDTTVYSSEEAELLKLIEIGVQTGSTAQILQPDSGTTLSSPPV", "assay": "Kinase panel screening", "conditions": "single dose of 10 μM, read-out: % inhibition rate"}, "FGFR3": {"molecular_target": "FGFR3 (Homo sapiens, UniProt P22607)", "assay": "Kinase panel screening", "conditions": "single dose of 10 μM, read-out: % inhibition rate"}, "ROS/ROS1": {"molecular_target": "ROS/ROS1 (Homo sapiens, UniProt P08922)", "sequence (P08922 28-2347)": "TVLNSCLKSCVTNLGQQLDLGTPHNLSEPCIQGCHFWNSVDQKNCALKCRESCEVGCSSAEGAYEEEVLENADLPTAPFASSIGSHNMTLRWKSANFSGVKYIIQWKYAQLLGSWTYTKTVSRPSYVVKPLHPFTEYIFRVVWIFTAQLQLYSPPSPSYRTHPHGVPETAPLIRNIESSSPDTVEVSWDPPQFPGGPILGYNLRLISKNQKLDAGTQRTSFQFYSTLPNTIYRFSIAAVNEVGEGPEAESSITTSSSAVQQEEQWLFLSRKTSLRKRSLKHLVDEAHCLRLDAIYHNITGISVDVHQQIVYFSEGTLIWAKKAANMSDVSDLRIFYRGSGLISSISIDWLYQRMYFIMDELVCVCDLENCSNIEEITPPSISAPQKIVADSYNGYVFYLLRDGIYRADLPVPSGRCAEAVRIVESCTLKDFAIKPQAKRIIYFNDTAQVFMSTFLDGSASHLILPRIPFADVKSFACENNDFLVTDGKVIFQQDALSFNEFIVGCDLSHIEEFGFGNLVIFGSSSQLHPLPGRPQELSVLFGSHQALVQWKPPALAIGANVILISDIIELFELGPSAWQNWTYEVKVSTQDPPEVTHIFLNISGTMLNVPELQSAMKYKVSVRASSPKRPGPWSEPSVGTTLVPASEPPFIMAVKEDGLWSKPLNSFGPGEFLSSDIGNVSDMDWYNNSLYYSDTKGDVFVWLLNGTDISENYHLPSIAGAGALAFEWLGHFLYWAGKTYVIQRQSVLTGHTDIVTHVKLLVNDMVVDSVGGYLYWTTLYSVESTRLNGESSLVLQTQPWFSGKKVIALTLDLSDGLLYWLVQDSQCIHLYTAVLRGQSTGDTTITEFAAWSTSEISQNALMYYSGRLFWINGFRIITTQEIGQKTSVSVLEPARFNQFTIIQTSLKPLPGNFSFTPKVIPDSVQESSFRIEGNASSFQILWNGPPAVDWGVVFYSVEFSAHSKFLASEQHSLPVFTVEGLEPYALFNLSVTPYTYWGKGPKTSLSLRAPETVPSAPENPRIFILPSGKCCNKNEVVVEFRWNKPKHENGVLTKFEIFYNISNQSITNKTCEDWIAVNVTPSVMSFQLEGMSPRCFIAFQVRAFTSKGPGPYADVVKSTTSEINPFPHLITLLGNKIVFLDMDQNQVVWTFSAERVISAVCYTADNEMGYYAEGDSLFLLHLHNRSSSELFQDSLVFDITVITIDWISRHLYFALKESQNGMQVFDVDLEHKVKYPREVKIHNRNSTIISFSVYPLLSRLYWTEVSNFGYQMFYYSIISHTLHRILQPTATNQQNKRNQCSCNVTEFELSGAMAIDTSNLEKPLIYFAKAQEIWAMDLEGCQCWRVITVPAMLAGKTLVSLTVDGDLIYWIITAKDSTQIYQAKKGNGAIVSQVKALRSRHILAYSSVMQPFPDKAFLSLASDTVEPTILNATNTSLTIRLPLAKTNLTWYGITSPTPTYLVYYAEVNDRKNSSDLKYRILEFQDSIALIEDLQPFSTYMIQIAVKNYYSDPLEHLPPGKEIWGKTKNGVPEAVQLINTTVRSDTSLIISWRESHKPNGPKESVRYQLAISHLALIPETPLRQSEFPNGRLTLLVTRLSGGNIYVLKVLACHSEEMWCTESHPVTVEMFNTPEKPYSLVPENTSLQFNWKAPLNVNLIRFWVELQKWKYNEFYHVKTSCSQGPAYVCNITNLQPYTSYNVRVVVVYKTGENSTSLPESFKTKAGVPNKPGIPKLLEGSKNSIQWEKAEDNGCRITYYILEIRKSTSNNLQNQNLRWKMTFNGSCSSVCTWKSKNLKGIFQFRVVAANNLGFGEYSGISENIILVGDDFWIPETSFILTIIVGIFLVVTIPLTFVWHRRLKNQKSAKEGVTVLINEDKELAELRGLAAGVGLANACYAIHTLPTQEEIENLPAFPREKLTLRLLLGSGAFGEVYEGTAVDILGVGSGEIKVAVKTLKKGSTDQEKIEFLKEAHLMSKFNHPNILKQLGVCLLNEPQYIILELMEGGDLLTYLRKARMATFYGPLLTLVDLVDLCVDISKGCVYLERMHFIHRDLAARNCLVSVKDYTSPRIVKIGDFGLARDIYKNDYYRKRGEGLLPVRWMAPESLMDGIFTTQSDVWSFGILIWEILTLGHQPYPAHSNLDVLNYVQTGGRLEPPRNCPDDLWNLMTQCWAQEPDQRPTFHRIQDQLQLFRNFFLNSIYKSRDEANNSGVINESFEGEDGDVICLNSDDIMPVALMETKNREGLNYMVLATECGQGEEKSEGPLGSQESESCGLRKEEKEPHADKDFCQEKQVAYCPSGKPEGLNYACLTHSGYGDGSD", "assay": "Kinase panel screening", "conditions": "single dose of 10 μM, read-out: % inhibition rate"}, "RIPK3": {"molecular_target": "RIPK3 (Homo sapiens, UniProt Q9Y572)", "assay": "Kinase panel screening", "conditions": "single dose of 10 μM, read-out: % inhibition rate", "experimental": "Next, kinase panel screening for Compound 7d was investigated for 36 different kinases at a single dose of 10 μM (FIG. 1 and Table 3)."}, "IGF1R": {"molecular_target": "IGF1R (Homo sapiens, UniProt P08069)", "assay": "Kinase panel screening", "conditions": "single dose of 10 μM, read-out: % inhibition rate"}}, "note": "pIC50: −log10 of the molar value. Like-named read-outs stand apart in the source and are kept apart here.", "data": [{"smiles": "Cc1oncc1C(=O)Nc1ccc2cnc(-c3cc(N4CCN(C)CC4)cc(C(F)(F)F)c3)nc2c1", "note": "[Compound 7d, 5-methyl-N-(2-(3-(4-methylpiperazin-1-yl)-5-(trifluoromethyl)phenyl)quinazolin-7-yl)isoxazole-4-carboxamide]", "values": [{"measurement": "inhibition at 10 µM", "setting": "GSK3b", "value": 8.06, "unit": "%"}, {"measurement": "inhibition at 10 µM", "setting": "c-MET", "value": 13.2, "unit": "%"}, {"measurement": "pIC50", "setting": "FLT (ITD); read-out: FLT (ITD) IC50", "value": "> 5.52"}, {"measurement": "pIC50", "setting": "FLT (ITD); read-out: IC50 against FLT-ITD", "value": 6.52}, {"measurement": "inhibition at 10 µM", "setting": "SYK", "value": 22.4, "unit": "%"}, {"measurement": "inhibition at 10 µM", "setting": "FYN", "value": 19, "unit": "%"}, {"measurement": "inhibition at 10 µM", "setting": "AXL (R499C)", "value": 10.1, "unit": "%"}, {"measurement": "inhibition at 10 µM", "setting": "MEK1", "value": 0, "unit": "%"}, {"measurement": "inhibition at 10 µM", "setting": "RON/MST1R", "value": 13.5, "unit": "%"}, {"measurement": "pIC50", "setting": "FLT3; read-out: FLT3 IC50", "value": "> 5.52"}, {"measurement": "pIC50", "setting": "FLT3; read-out: IC50 against FLT3", "value": 6.97}, {"measurement": "inhibition at 10 µM", "setting": "KDR/VEGFR2", "value": 16.8, "unit": "%"}, {"measurement": "inhibition at 10 µM", "setting": "FGFR3", "value": 1, "unit": "%"}, {"measurement": "inhibition at 10 µM", "setting": "ROS/ROS1", "value": 14.4, "unit": "%"}, {"measurement": "inhibition at 10 µM", "setting": "RIPK3", "value": 12.8, "unit": "%"}, {"measurement": "inhibition at 10 µM", "setting": "IGF1R", "value": 0, "unit": "%"}]}]}
